Source: patent US6825172B2, “3-descladinosyl-6-O-carbamoyl and 6-O-carbonoyl macrolide antibacterial agents” (Janssen Pharmaceutica, NV, priority 2002, dated 2004)
Converted amounts (≈) assume the structure as drawn. Read-outs that look alike come from different tables or passages of the source.

Experiments:
Assay in all cases: MIC, microdilution broth method (NCCLS)
Type in all cases: cell-based
E. coli OC2605 = conditions: Escherichia coli
Protocol: (§1) Minimal inhibitory concentration (MIC) has been an indicator of in vitro antibacterial activity widely used in the art. The in vitro antimicrobial activity of the compounds was determined by the microdilution broth method following the test method from the National Committee for Clinical Laboratory Standards (NCCLS). This method is described in the NCCLS Document M7-A4, Vol.17, No.2, “Methods for Dilution Antimicrobial Susceptibility Test for Bacteria that Grow Aerobically—Fourth Edition”, which is incorporated herein by reference.
(§2) In this method two-fold serial dilutions of drug in cation adjusted Mueller-Hinton broth are added to wells in microdilution trays. The test organisms are prepared by adjusting the turbidity of actively growing broth cultures so that the final concentration of test organism after it is added to the wells is approximately 5×10^4 CFU/well.
(§3) Following inoculation of the microdilution trays, the trays are incubated at 35 °C for 16-20 hours and then read. […] The amount of growth in the wells containing the test compound is compared with the amount of growth in the growth-control wells (no test compound) used in each tray. As set forth in Table 1, compounds of the present invention were tested against a variety of Gram positive and Gram negative pathogenic bacteria resulting in a range of activities depending on the organism tested.

E. faecalis ATCC29212 = conditions: Enterococcus faecalis, read-out: MIC Values, C: E. faecalis ATCC29212
Protocol: as §1, §2, §3

H. influenzae ATCC49247 = conditions: Haemophilus influenzae, read-out: MIC Values, E: H. influenzae ATCC49247
Protocol: as §1, §2, §3

S. aureus ATCC29213 = conditions: Staphylococcus aureus, read-out: MIC Values, B: S. aureus ATCC29213
Protocol: as §1, §2, §3

S. pneumoniae ATCC49619 = conditions: Streptococcus pneumoniae, read-out: MIC Values, D: S. pneumoniae ATCC49619
Protocol: as §1, §2, §3

[1] = Table 2, 3,6-Dicarbamoyl Macrolide Derivatives, read-out: MIC Values, A: E. coil OC2605
[2] = Table 2, 3,6-Dicarbamoyl Macrolide Derivatives
[3] = Table 1, 6-Carbamoyl-3-Acyl Macrolide Derivatives, read-out: MIC Values, A: E. coli OC2605
[4] = Table 1, 6-Carbamoyl-3-Acyl Macrolide Derivatives

Compound	MIC (E. coli OC2605; [1]) [µg/mL]	MIC (E. faecalis ATCC29212; [2]) [µg/mL]	MIC (H. influenzae ATCC49247; [2]) [µg/mL]	MIC (S. aureus ATCC29213; [2]) [µg/mL]	MIC (S. pneumoniae ATCC49619; [2]) [µg/mL]	MIC (E. coli OC2605; [3]) [µg/mL]	MIC (E. faecalis ATCC29212; [4]) [µg/mL]	MIC (H. influenzae ATCC49247; [4]) [µg/mL]	MIC (S. aureus ATCC29213; [4]) [µg/mL]	MIC (S. pneumoniae ATCC49619; [4]) [µg/mL]
CC[C@H]1OC(=O)[C@H](C)[C@@H](OC(=O)N(CC)Cc2cccnc2)[C@H](C)[C@@H](O[C@@H]2O[C@H](C)C[C@H](N(C)C)[C@H]2O)[C@](C)(OC(=O)NC/C=C/c2ccc(-c3ncccn3)cc2)C[C@@H](C)C(=O)[C@H](C)[C@H]2NC(=O)O[C@@]21C [Compound 61]	> 16	0.5 (≈ 0.5 µM)	8 (≈ 8 µM)	1 (≈ 1 µM)	0.06 (≈ 0.06 µM)	–	–	–	–	–
CCC(=O)O[C@H]1[C@H](C)[C@@H](O[C@@H]2O[C@H](C)C[C@H](N(C)C)[C@H]2O)[C@](C)(OC(=O)NC/C=C/c2ccc(-c3ncccn3)cc2)C[C@@H](C)C(=O)[C@H](C)[C@H]2NC(=O)O[C@]2(C)[C@@H](CC)OC(=O)[C@@H]1C [Compound 14]	–	–	–	–	–	16 (≈ 17.9 µM)	0.25 (≈ 0.28 µM)	4 (≈ 4.47 µM)	0.25 (≈ 0.28 µM)	0.06 (≈ 0.0671 µM)
CC[C@H]1OC(=O)[C@H](C)[C@@H](OC(=O)Nc2ccc(F)cc2)[C@H](C)[C@@H](O[C@@H]2O[C@H](C)C[C@H](N(C)C)[C@H]2O)[C@](C)(OC(=O)NC/C=C/c2ccc(-c3ncccn3)cc2)C[C@@H](C)C(=O)[C@H](C)[C@H]2NC(=O)O[C@@]21C [Compound 52]	> 16	1 (≈ 1.03 µM)	4 (≈ 4.1 µM)	1 (≈ 1.03 µM)	0.12 (≈ 0.123 µM)	–	–	–	–	–
CC[C@H]1OC(=O)[C@H](C)[C@@H](OC(=O)N2CCCC2)[C@H](C)[C@@H](O[C@@H]2O[C@H](C)C[C@H](N(C)C)[C@H]2O)[C@](C)(OC(=O)NC/C=C/c2ccc(-c3ncccn3)cc2)C[C@@H](C)C(=O)[C@H](C)[C@H]2NC(=O)O[C@@]21C [Compound 62]	> 16	0.5 (≈ 0.535 µM)	4 (≈ 4.28 µM)	0.5 (≈ 0.535 µM)	0.06 (≈ 0.0642 µM)	–	–	–	–	–
CC[C@H]1OC(=O)[C@H](C)[C@@H](OC(=O)COCc2ccccc2)[C@H](C)[C@@H](O[C@@H]2O[C@H](C)C[C@H](N(C)C)[C@H]2O)[C@](C)(OC(=O)NC/C=C/c2ccc(-c3ncccn3)cc2)C[C@@H](C)C(=O)[C@H](C)[C@H]2NC(=O)O[C@@]21C [Compound 16]	–	–	–	–	–	> 16	0.5 (≈ 0.507 µM)	8 (≈ 8.11 µM)	1 (≈ 1.01 µM)	0.06 (≈ 0.0608 µM)
CC[C@H]1OC(=O)[C@H](C)[C@@H](OC(=O)Nc2ccc(OC)nc2)[C@H](C)[C@@H](O[C@@H]2O[C@H](C)C[C@H](N(C)C)[C@H]2O)[C@](C)(OC(=O)NC/C=C/c2ccc(-c3ncccn3)cc2)C[C@@H](C)C(=O)[C@H](C)[C@H]2NC(=O)O[C@@]21C [Compound 50]	> 16	0.5 (≈ 0.506 µM)	4 (≈ 4.05 µM)	1 (≈ 1.01 µM)	0.12 (≈ 0.121 µM)	–	–	–	–	–
CC[C@H]1OC(=O)[C@H](C)[C@@H](OC(=O)N(C)C(C)C)[C@H](C)[C@@H](O[C@@H]2O[C@H](C)C[C@H](N(C)C)[C@H]2O)[C@](C)(OC(=O)NC/C=C/c2ccc(-c3ncccn3)cc2)C[C@@H](C)C(=O)[C@H](C)[C@H]2NC(=O)O[C@@]21C [Compound 57]	16 (≈ 17.1 µM)	0.5 (≈ 0.534 µM)	4 (≈ 4.27 µM)	0.5 (≈ 0.534 µM)	0.06 (≈ 0.064 µM)	–	–	–	–	–
CC[C@H]1OC(=O)[C@H](C)[C@@H](OC(=O)C(C)C)[C@H](C)[C@@H](O[C@@H]2O[C@H](C)C[C@H](N(C)C)[C@H]2O)[C@](C)(OC(=O)NC/C=C/c2cccnc2)C[C@@H](C)C(=O)[C@H](C)[C@H]2NC(=O)O[C@@]21C [Compound 17]	–	–	–	–	–	16 (≈ 19.3 µM)	0.25 (≈ 0.301 µM)	1 (≈ 1.2 µM)	0.5 (≈ 0.602 µM)	0.06 (≈ 0.0722 µM)
CC[C@H]1OC(=O)[C@H](C)[C@@H](OC(=O)c2cccnc2)[C@H](C)[C@@H](O[C@@H]2O[C@H](C)C[C@H](N(C)C)[C@H]2O)[C@](C)(OC(=O)NC/C=C/c2ccc(-c3ncccn3)cc2)C[C@@H](C)C(=O)[C@H](C)[C@H]2NC(=O)O[C@@]21C [Compound 7]	–	–	–	–	–	> 16	0.5 (≈ 0.53 µM)	8 (≈ 8.48 µM)	1 (≈ 1.06 µM)	0.06 (≈ 0.0636 µM)
CC[C@H]1OC(=O)[C@H](C)[C@@H](OC(C)=O)[C@H](C)[C@@H](O[C@@H]2O[C@H](C)C[C@H](N(C)C)[C@H]2O)[C@](C)(OC(=O)NC/C=C/c2ccc(-c3ncccn3)cc2)C[C@@H](C)C(=O)[C@H](C)[C@H]2NC(=O)O[C@@]21C [Compound 12]	–	–	–	–	–	> 16	0.25 (≈ 0.284 µM)	8 (≈ 9.09 µM)	1 (≈ 1.14 µM)	0.06 (≈ 0.0682 µM)
